Results: a melting point compilation (Tetko et al.)

Row | Structure (SMILES) | melting point [°C]
1 | O=C(O)c1cc([N+](=O)[O-])cnc1Br | 135 to 137
2 | NCC1(C(N)=O)CCCC1 | 61 to 63
3 | CC1CCC(NC(=O)CN2CCNCC2)CC1 (centres undefined) | 120 to 122
4 | Cc1cc(C)c(C#N)c(N2CCCC2)n1 | 54 to 56
5 | COc1cc(NC(=O)CCl)cc(OC)c1OC | 104 to 106
6 | N#Cc1ccc(C(=O)O)[nH]1 | 239 to 241
7 | CNc1cn[nH]c(=O)c1 | 279 to 281
8 | CC1(C)CN(CC(N)=NO)CCO1 | 75 to 77
9 | CCCc1nonc1N | 29 to 31
10 | O=C(O)CCC(=O)N1CCC(O)CC1 | 121 to 123
11 | CC(C)(C)C1(C)OC(=O)CC(=O)O1 | 72 to 74
12 | COc1ccc(CC2CCNCC2)cc1 | 55 to 57
13 | COc1ccc(C)cc1NC(=O)C1CCCN1 (centres undefined) | 103 to 105
14 | O=CC(Br)C=Nc1cnc(Br)cn1 (centres undefined) | 177 to 179
15 | Cc1c([N+](=O)[O-])cc(C(=O)O)cc1S(=O)(=O)Cl | 176 to 178
16 | O=Cc1cccc(Br)c1O | 51 to 55
17 | NS(=O)(=O)N1CCCNCC1 | 118 to 120
18 | CN(C)S(=O)(=O)c1cc(Br)cnc1N | 173 to 175
19 | O=C(O)C1CC1C(=O)O (centres undefined) | 177 to 179
20 | O=C(O)c1cc(C=Cc2ccncc2)nc2ccc(Br)cc12 | 309 to 311
21 | C#CCNC(=O)C(C)Cl (centres undefined) | 61 to 63
22 | NC(=O)CN1CCC(O)CC1 | 114 to 116
23 | COc1ccc(NS(=O)(=O)c2ccc(C)c(N)c2)cc1 | 127 to 129
24 | COc1ccc(CCNC(N)=S)cc1OC | 159 to 161

Row | Structure (SMILES) | melting point [°C]
25 | CNCC(O)CN1CCCC1=O (centres undefined) | 88 to 90
26 | CC1CCCC1(N)C(N)=O (centres undefined) | 64 to 66
27 | O=C(O)CCC(=O)c1cc(Cl)sc1Cl | 117 to 119
28 | CC(=O)CC(=O)Nc1ccc(F)c(F)c1 | 92 to 94
29 | O=S(=O)(CCN1CCC(O)CC1)c1ccc(Br)cc1 | 117 to 119
30 | c1cc(C2CCCNC2)[nH]n1 (centres undefined) | 74 to 76
31 | Cc1sc2nc(S)n(C(C)C)c(=O)c2c1C | 270 to 272
32 | CCOc1cc(Br)c([N+](=O)[O-])cc1OCC | 62 to 64
33 | NC(CO)c1ccc(Br)cc1 (centres undefined) | 89 to 91
34 | O=C(O)C1CCCN(C(=O)NC2CCCC2)C1 (centres undefined) | 167 to 169
35 | [N-]=[N+]=NC1(c2ccc(F)cc2)CCOCC1 | 63 to 65
36 | N#Cc1ccc(OCC2CC2)nc1 | 53 to 55
37 | O=c1[nH]c(=O)c2cc(S(=O)(=O)Cl)ccc2[nH]1 | 272 to 274
38 | CCC(=O)c1ccc(C(=O)OC)cc1 | 82 to 84
39 | O=C(O)C1CCCn2c1n[nH]c2=O (centres undefined) | 121 to 123
40 | CN1C(=O)CCC(CO)C1c1ccc(C(F)(F)F)cc1 (centres undefined) | 95 to 97
41 | NNc1nccnc1Cl | 153 to 155
42 | N#Cc1csc(C=O)c1 | 84 to 86
43 | N#Cc1cc(F)ccc1N=C=O | 31 to 33
44 | CS(=O)(=O)Nc1cccc(C#N)c1 | 154 to 156
45 | O=[N+]([O-])c1ccc2[nH]c(-c3cscn3)nc2c1 | 257 to 259
46 | O=C(O)c1ccc(-c2ccc(OC(F)F)cc2)s1 | 209 to 211
47 | NC(=O)CCc1csc(N)n1 | 141 to 143
48 | CCc1c(C(=O)O)cnn1C(C)(C)C | 133 to 135

Row | Structure (SMILES) | melting point [°C]
49 | N#CC(=Cc1ccc2c(c1)OCO2)C(=O)O | 205 to 207
50 | COCc1ccc(C(=O)O)o1 | 63 to 65
51 | NC(=O)[C@H]1CCCC[C@H]1C(=O)O | 169 to 171
52 | Cc1c(C(=O)O)cc(F)cc1S(=O)(=O)Cl | 121 to 123
53 | Cc1ccc(C)c2c(C)c(C(=O)O)oc12 | 239 to 241
54 | Nc1cccc(C(=O)N2CCCCC2)c1 | 121 to 123
55 | Nc1ccc(N2CCOCC2)cn1 | 143 to 145
56 | O=C(CCl)NC1CCS(=O)(=O)C1 (centres undefined) | 89 to 98
57 | N#CCC(=O)c1ccsc1 | 92 to 94
58 | Fc1cc(Br)cc2cc(Br)cnc12 | 161 to 163
59 | NNC(=O)Cn1ccc(C(F)(F)F)n1 | 157 to 159
60 | CS(=O)(=O)Cc1nc(CCl)cs1 | 80 to 82
61 | CC(C)CN1C(=O)CC(=O)NC1=O | 144 to 146
62 | COc1ccc(-c2cc(N)on2)c(OC)c1OC | 161 to 163
63 | O=C(CCl)NN1C(=O)NC2(CCCCC2)C1=O | 105 to 107
64 | Cc1c(C=O)cc(C#N)n1C | 85 to 97
65 | O=C(O)C1CC2CCCCC2N1C(=O)c1ccc(F)cc1 (centres undefined) | 147 to 149
66 | O=C(O)c1cc(OC(F)F)cc(OC(F)F)c1 | 79 to 81
67 | Nc1cc(-c2ccsc2)no1 | 89 to 91
68 | NC(CN1CCCC1=O)c1cccc(C(F)(F)F)c1 (centres undefined) | 76 to 78
69 | NC(=NO)c1cnccn1 | 182 to 184
70 | O=CNc1cccc(O)c1 | 115 to 117
71 | CC1CC1c1ccc(/C=C/C(=O)O)o1 (centres undefined) | 73 to 75

Other lines, results leading:

Row | melting point [°C] | Structure (SMILES)
72 | 229 to 231 | O=C(O)C=Cc1cn(-c2ccccc2)nc1-c1ccc(F)cc1
73 | 199 to 201 | O=Ic1ccccc1
74 | 227 to 229 | O=c1[nH]c(CCl)nc2scc(-c3ccccc3)c12
75 | 92 to 94 | O=[N+]([O-])c1ccc(OCc2ccccc2)cc1
76 | 184 to 186 | CCN(CC)S(=O)(=O)c1ccc(C=CC(=O)O)cc1
77 | 187 to 189 | Cc1cc(C(=O)O)c(C)n1-c1ccccn1
78 | 124 to 126 | O=C(O)CC(NC(=O)OCc1ccccc1)c1ccccc1 (centres undefined)
79 | 94 to 96 | Nc1ccc(SCc2ccccc2)cn1
80 | 164 to 166 | COCc1ccc(C(=O)O)cc1OC
81 | 169 to 171 | O=C(O)c1ccc(-c2cccs2)o1
82 | 180 to 182 | O=C(O)CCc1ncc(-c2ccccc2Br)o1
83 | 139 to 141 | N#Cc1ccccc1NC(=O)CCCC(=O)O
84 | 99 to 101 | O=C(O)c1cnn(-c2ccc(Cl)nn2)c1C(F)(F)F
85 | 239 to 241 | O=C(O)c1ccc(=O)n(-c2ccc(F)cc2)n1
86 | 129 to 131 | Nc1sc2c(c1C(=O)c1cccc(Cl)c1)CCC2
87 | 67 to 69 | O=[N+]([O-])c1ccc(Cl)cc1S(=O)(=O)Cl
88 | 105 to 106 | Cc1cccc(NC(=O)CCN)n1
89 | 208 to 210 | NC1=NC(=O)c2ccccc21
90 | 154 to 156 | O=C(CN1C(=O)CCC1=O)c1ccccc1F
91 | 95 to 97 | OCc1csc(-c2ccccn2)n1
92 | 143 to 145 | COc1cccc(-c2c[nH]cc2C(=O)O)c1
93 | 94 to 96 | Cc1ccccc1-n1c(S)nnc1-c1cccnc1
94 | 83 to 85 | O=C(O)CCCn1nnc(-c2ccccc2)n1
95 | 92 to 94 | Cc1noc(C)c1CSCC(=O)O
96 | 179 to 181 | O=C(O)[C@H](Cc1ccccc1)N1C(=O)c2ccccc2C1=O

Row | melting point [°C] | Structure (SMILES)
97 | 249 to 251 | O=c1c2sccc2nc(S)n1Cc1ccccc1
98 | 80 to 82 | Sc1cnnc2ccccc12
99 | 70 to 72 | O=[N+]([O-])c1cc(Cc2ccccc2)ccc1O
100 | 149 to 151 | CSC(=S)NN=C(C)c1ccccc1
101 | 123 to 125 | Clc1nc(-c2cccs2)nc2ccccc12
102 | 149 to 151 | Cc1ccc2sc(-c3ccc(CCl)cc3)nc2c1
103 | 164 to 166 | COc1ccc(NC(=O)c2ccc(Br)cc2)c(C)c1
104 | 69 to 73 | Cc1ccc2c(c1)CCC2=O
105 | 148 to 150 | Cc1ccc(NC(N)=S)cc1F
106 | 89 to 91 | OC1C=C(c2ccc(Cl)cc2)CC1 (centres undefined)
107 | 153 to 155 | O=C1NCCN1c1ccccc1[N+](=O)[O-]
108 | 130 to 132 | Cc1ncc(Cl)c(C(=O)O)n1
109 | 144 to 146 | CSc1ccc(Cl)c(C(N)=O)c1
110 | 146 to 148 | Nc1ccc(OCc2cn3ccccc3n2)cc1
111 | 252 to 254 | O=C(O)c1cccc(NC(=O)C2Cc3ccccc3O2)c1 (centres undefined)
112 | 125 to 127 | NC(=S)Nc1ccccc1Oc1ccccc1
113 | 235 to 237 | Cc1c(-c2ccccc2)nc2ccccc2c1C(=O)O
114 | 79 to 81 | O=[N+]([O-])c1ccccc1Nc1ccc(F)cc1F
115 | 135 to 137 | CCNc1nnc(C)c2ccccc12
116 | 165 to 167 | CC(C)(NC(=O)Nc1ccccc1)C(=O)O
117 | 186 to 188 | CC1CCCCN1C(=O)c1ccc(N)cc1Cl (centres undefined)
118 | 268 to 270 | Cc1nn(-c2cccc(Cl)c2)c2sc(C(=O)O)cc12
119 | 123 to 127 | Nc1sc2c(c1C(=O)c1ccccc1)CCCC2
120 | 29 to 34 | Clc1ccc(OCCCBr)cc1
121 | 154 to 156 | O=[N+]([O-])c1cccc(-c2nn[nH]n2)c1

Row | melting point [°C] | Structure (SMILES)
122 | 86 to 88 | CC(Br)C(=O)c1ccc(Oc2ccccc2)cc1 (centres undefined)
123 | 181 to 183 | O=C(O)C1(c2ccc(Cl)cc2)CCOCC1
124 | 157 to 159 | Cc1sc2nc(-c3ccccc3)nc(Cl)c2c1C
125 | 156 to 158 | Cn1cnc2cc(Br)ccc2c1=O
126 | 108 to 110 | O=C(O)c1ccccc1Oc1cccc(Br)c1
127 | 169 to 171 | NC(=O)C1OCCc2ccccc21 (centres undefined)
128 | 35 to 41 | Cc1nn(-c2ccccc2)c(Cl)c1CCl
129 | 144 to 146 | O=C(CN1C(=O)CCC1=O)c1ccccc1
130 | 141 to 143 | CC(C)c1noc(-c2ccccc2C(=O)O)n1
131 | 226 to 228 | NS(=O)(=O)c1ccc(Sc2ccccc2C(=O)O)cc1
132 | 123 to 125 | CC1Cc2ccccc2N1C(=O)C1CCCCC1C(=O)O (centres undefined)
133 | 124 to 126 | CC1Cc2ccccc2N1c1ccccc1C(=O)O (centres undefined)
134 | 147 to 149 | Nc1ncn(Cc2cccc(Br)c2)n1
135 | 129 to 131 | CC(C)n1c(Cl)nnc1-c1ccccc1
136 | 148 to 150 | O=C(O)/C=C/c1cn(Cc2ccccc2Cl)nc1-c1ccccc1
137 | 178 to 180 | O=C(NNc1ccccc1)Nc1ccccc1
138 | 113 to 115 | NC(=O)CSc1ccccc1N
139 | 174 to 176 | NS(=O)(=O)c1c(Cl)nc2ccccn12
140 | 95 to 97 | Cc1cccc(C2(C(=O)O)CCC2)c1
141 | 161 to 163 | COc1ccc(N)cc1-n1nnnc1C1CC1
142 | 112 to 114 | Cc1ccc(N2CC(C(=O)O)CC2=O)c(F)c1 (centres undefined)
143 | 127 to 129 | O=Cc1ccc(-n2cncn2)c(F)c1
144 | 149 to 151 | O=C(O)CCN1C(=O)CCc2cc(F)ccc21
